Assay results from article PMC13576449, “Small-Molecule Activators of PRMT1: Discovery, SAR Analyses, and Proapoptotic Effects in Pancreatic Cancer Cells” (Journal of Medicinal Chemistry, 2026).

What was measured:
FLAG-tagged PRMT1 = target: T1, FLAG-tagged PRMT1 (Rattus norvegicus, UniProt Q63009); assay: Fluorescence-based in vitro PRMT assay (F-PRMT assay), PRMT1; format: biochemical; settings: for activation at 100 µM: read-out: enhancement (increase) of PRMT1 enzymatic activity
T1 construct: Full-length FLAG-tagged PRMT protein; made in house; host or cells: Sf9 insect cells (baculovirus)

[1] = test system: FLAG-tagged PRMT1 or His-tagged PRMT1; assay: Radioactive in vitro methyltransferase assay, autoradiography (core histones or GST-GAR); format: biochemical, rat, human; settings: 100 μM compound, [14C]-methyl-SAM, vs DMSO-treated control
Excerpt: Given that the effects of the PRMT1 activators had been screened and quantified so far using the F-PRMT assay, we next assessed the efficacy of the selected compounds in stimulating PRMT1-mediated methylation of natural substrates. To this end, we conducted in vitro methyltransferase assays using recombinant PRMT1 and core histones or GST-tagged GAR (glycine-arginine-rich domain of fibrillarin) as substrates of PRMT1. , Addition of the cofactor [^14C]-methyl-SAM allowed for the visualization of radiolabeled methyl group incorporation into the substrate proteins by SDS-PAGE and autoradiography or by liquid scintillation counting. […] It is important to note that PRMT1 methylates both H2A and H4, albeit with variable efficiency. […] As a result, the methylation signals of both histones were considered in the quantification process (Figure A, B).
As negative control (Ctrl (−)), PRMT1 enzymes and [^14C-methyl]-SAM were incubated without substrates. Subsequently, samples were separated by SDS-PAGE, blotted, and analyzed by autoradiography. Substrates (H2A, H4 or GST-GAR) and molecular weights (kDa) of the protein marker are indicated. Black lines designate composite images, assembled from the same blots and exposure times. The methylation signals of the substrates were densitometrically quantified, and expressed relative to the DMSO-treated control, as indicated by the numbers below the autoradiographs. Representative results are depicted, with quantification graphs (below the autoradiographs in A and B) summarizing biological replicates. […] Subsequently, GST-GAR was immobilized on glutathione-beads and PRMT1 activity was measured by quantifying the incorporation of ^14C-methyl groups (in cpm) using liquid scintillation counting. […] Cell viability was quantified using the CellTiter-Glo assay. Viability of compound-treated cells is shown in % relative to the viability of solvent-treated cells, which was set to 100% (mean ± SD, n = 3), and then plotted against the logarithm of the compound concentrations. Concentration-viability curves were fitted by nonlinear regression, with the half-maximal inhibitory concentration (IC50) of the compounds for PANC-1 cell viability and the coefficient of determination (R^2) indicated. […] Subsequently, whole-cell extracts were prepared and analyzed by Western blot using antibodies against ADMA, ACTIN (ACT), and VINCULIN (VINC), of which the latter two stainings served as loading controls. Molecular weights (kDa) of the protein marker are indicated. All the ADMA signals per lane were densitometrically quantified, normalized to the signal of the respective loading control and expressed relative to the DMSO-treated control, as indicated by the numbers below the immunostainings. […]

PaTu8988T cells = assay: Annexin V/PI flow cytometry apoptosis assay, PaTu8988T; format: cell-based, human; settings: for gemcitabine-induced apoptosis, AV/PI flow cytometry, co-treatment: TR-033 5 µM, TR-036 10 µM, ICTR-059 5 µM, after 24 h gemcitabine 1 μM, vs gemcitabine alone
Method: 6 Effect of small-molecule modulators on gemcitabine-induced apoptosis and tumor growth of PDAC cells. […] Subsequently, the luminescence-based caspase3/7 assay was performed. The activity of caspase 3/7 in treated cells was normalized to the activity measured in untreated cells (dark gray bar), which was set to 1 (mean SD, n = 6 for PANC-1 and n = 4 for PaTu8988T; *: p ≤ 0.05, **: p ≤ 0.01, ***: p ≤ 0.001, using the student t-test). […] After 24 h, gemcitabine (GEM, 1 μM) was added (+) or not (−) for another incubation of 48 h. Subsequently, the apoptotic cell fraction was quantified in % by flow cytometry using FITC-labeled Annexin V (AV) and propidium iodide (PI) staining (in B: mean ± SD, n = 6 for PANC-1 and n = 5 for PaTu8988T; **: p ≤ 0.01, ***: p ≤ 0.001, ****: p ≤ 0.0001, using the student t-test). […] Viable cells are AV/PI double-negative (AV–/PI–, lower left quadrant, Q4), early apoptotic cells are AV single-positive (AV+/PI– upper left quadrant, Q1), late apoptotic cells are AV/PI double-positive (AV+/PI+, upper right quadrant, Q2), and necrotic cells are PI single-positive (AV–/PI+, lower right quadrant, Q3). The sum of early and late apoptotic cell numbers (Q2+Q3 in %) is indicated in red. D-G: The workflow of the PDAC xenograft experiments in mice is depicted in D. PANC-1 cells (2 × 10^6 cells/mouse) were subcutaneously (s.c.) injected in the right flank of female athymic nude mice. […] Tumor volumes were measured every second day using a digital caliper. […] At the end of the 2 weeks, mice were sacrificed and tumors were dissected (F).
For quantification of apoptosis by Fluorescence Activated Cell Sorting (FACS), PANC-1 and PaTu8988T cells were seeded in 6-well plates (250 × 10^3 cells/well) and cultured in the absence or presence of compounds. After 24 h, gemcitabine was added or not for another 48 h. After harvesting and washing, unfixed cells (0.5–1 × 10^6) were incubated with FITC-labeled Annexin V and/or PI (BD Pharmingen) according to the manufacturer’s instructions. All samples were analyzed using a BD FACSCalibur flow cytometer (BD Bioscience). Data were acquired using the CellQuestPro program and analyzed with the FlowJo (FlowJo LLC) software.
After 24 hours, gemcitabine (GEM, 1 µM) was added (+) or not
(-) for another incubation of 48 hours. Subsequently, the apoptotic cell fraction was assessed by flow cytometry using FITC-labeled Annexin V (AV) and propidium iodide (PI) staining and quantified in % (mean ± SD, n=3-4; ns: not significant, *: p ≤0.05, **: p ≤0.01, ***: p ≤0.001, ****: p ≤0.0001, using the student t-test).

[2] = 100 μM compound, increase over solvent-treated activity

T1 sequence (Q63009 whole entry): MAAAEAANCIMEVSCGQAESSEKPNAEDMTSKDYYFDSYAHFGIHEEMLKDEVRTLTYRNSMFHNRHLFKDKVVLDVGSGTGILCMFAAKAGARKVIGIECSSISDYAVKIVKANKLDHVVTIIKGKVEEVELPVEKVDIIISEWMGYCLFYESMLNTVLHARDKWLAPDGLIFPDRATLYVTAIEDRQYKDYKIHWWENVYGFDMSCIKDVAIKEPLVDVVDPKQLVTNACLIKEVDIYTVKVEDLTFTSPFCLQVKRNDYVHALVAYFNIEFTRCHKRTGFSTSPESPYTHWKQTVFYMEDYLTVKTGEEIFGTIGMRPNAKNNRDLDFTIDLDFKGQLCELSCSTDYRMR

| PRMT1 activity compared to the solvent-treated activity of 100% (FLAG-tagged PRMT1; 100 μM compound) | effect on PRMT1 activity (in words) (FLAG-tagged PRMT1; 100 μM compound) | activation at 100 µM (FLAG-tagged PRMT1; [2]) | Molecule | enhancement (increase) of PRMT1 enzymatic activity (FLAG-tagged PRMT1; [2]) | Efficacy ±Δ% (PRMT1) (FLAG-tagged PRMT1; Table 1, 100 μM compound, mean % difference of activity vs solvent control (100%), - inhibition, + activation, n = 3) | Efficacy ±∆% (PRMT1) (FLAG-tagged PRMT1; Table S3, 100 µM compound, mean % difference vs solvent control (100%), n≥3) | EC50 (FLAG-tagged PRMT1; read-out: half-maximal effective concentration (EC50) for PRMT1) | PRMT1 methylation activity toward histones H2A and H4 and GAR, autoradiography [1] | viability at 10 µM (PaTu8988T cells; Homo sapiens, PaTu 8988t, 48 h, read-out: Q4, viable cells (AV–/PI–)) | apoptosis, AV/PI flow cytometry, single agent (PaTu8988T cells; PaTu8988T, TR-07 10 μM) | gemcitabine-induced apoptosis, AV/PI flow cytometry, co-treatment (PaTu8988T cells; PaTu8988T, TR-07 10 μM, 48 h) |
| --- | --- | --- | --- | --- | --- | --- | --- | --- | --- | --- | --- |
|  |  |  | CN(C)Cc1cccc(CN/C=C2\C(=O)NC(=O)c3ccccc32)c1.Cl [TR-07, (Z)-1-[3-({[(1,3-Dioxo-2,3-dihydroisoquinolin-4(1H)-lidene)methyl]amino}methyl)phenyl]-N,N-dimethylmethanaminium chloride] | +45% | +45% | +45% | 108 µM | increased | 95.8% | did not significantly induce apoptosis | significant increase in the early and late apoptotic stages |
| 215–225% | significantly increased PRMT1 activity | ≥ 60% | CN(C)Cc1cccc(-c2ccc3[nH]c(=O)c4ccccc4c3c2)c1 [TR-033, 2-{3-[(Dimethylamino)methyl]phenyl}phenanthridin-6(5H)-One] |  |  |  |  | increased |  |  | rather diminished the gemcitabine-triggered cell death |
| 215–225% |  | ≥ 60% | CCN(CC)Cc1cccc(N/C=C2\C(=O)NC(=O)c3ccccc32)c1.Cl [TR-036, (Z )-N-(3-{[(1,3-Dioxo-2,3-dihydroisoquinoline-4(1 H )-ylidene)methyl]amino}benzyl)-N -ethylethanaminium chloride] |  |  |  |  | increased |  |  | rather diminished the gemcitabine-triggered cell death |

| Molecule | PRMT1 activity compared to the solvent-treated activity of 100% (FLAG-tagged PRMT1; 100 μM compound) | effect on PRMT1 activity (in words) (FLAG-tagged PRMT1; 100 μM compound) | activation at 100 µM (FLAG-tagged PRMT1; [2]) | enhancement (increase) of PRMT1 enzymatic activity (FLAG-tagged PRMT1; [2]) | Efficacy ±Δ% (PRMT1) (FLAG-tagged PRMT1; Table 1, 100 μM compound, mean % difference of activity vs solvent control (100%), - inhibition, + activation, n = 3) | Efficacy ±∆% (PRMT1) (FLAG-tagged PRMT1; Table S3, 100 µM compound, mean % difference vs solvent control (100%), n≥3) | EC50 (FLAG-tagged PRMT1; read-out: half-maximal effective concentration (EC50) for PRMT1) | PRMT1 methylation activity toward histones H2A and H4 and GAR, autoradiography [1] | viability at 10 µM (PaTu8988T cells; Homo sapiens, PaTu 8988t, 48 h, read-out: Q4, viable cells (AV–/PI–)) | apoptosis, AV/PI flow cytometry, single agent (PaTu8988T cells; PaTu8988T, TR-07 10 μM) | gemcitabine-induced apoptosis, AV/PI flow cytometry, co-treatment (PaTu8988T cells; PaTu8988T, TR-07 10 μM, 48 h) |
| --- | --- | --- | --- | --- | --- | --- | --- | --- | --- | --- | --- |
| (Z)-2-(2-{[(1,3-Dioxo-2,3-dihydroisoquinolin-4(1H)-ylidene)methyl]amino}phenyl)-N,N-dimethylethan-1-aminium chloride [ICTR-059] | up to 200% |  |  |  |  |  |  | increased |  |  | weakly enhanced the gemcitabine-induced apoptosis |
